# In patent US20260116874A1, “HETEROAROMATIC INDOLESULFONAMIDES” (SEED Therapeutics, Inc., priority 2023, published 2026):
# What was measured:
# [1] = Liver microsomes stability, human; type: in vitro ADME; conditions: 1 μM, Table 3, read-out: Metabolic Stability Half-life, human
# Protocol: (§1) A 100 μM test compound solution and PC solution (verapamil) was prepared by adding 2 μL of 10 mM stock solution in DMSO to 198 μL of 50% acetonitrile/50% water.
# (§2) Two separate experiments were performed as follows:
# (§3) a) With Cofactors (NADPH): 25 μL of 10 mM NADPH was added to the incubations. The final concentrations of microsomes and NADPH were 0.5 mg/mL and 1 mM, respectively.
# (§4) b) Without Cofactors (NADPH): 25 μL of 100 mM Phosphate buffer was added to the incubations. The final concentration of microsomes was 0.5 mg/mL. The mixture was pre-warmed at 37° C. for 10 minutes.
# (§5) The reaction was started with the addition of 2.5 μL of 100 µM control compound or test compound solutions. Verapamil was used as positive control in this study. The final concentration of test compound or control compound was 1 μM. The incubation solution was incubated in a water bath at 37° C.
# (§6) Aliquots of 30 μL were taken from the reaction solution at 0.5, 15, 30, 45 and 60 minutes. The reaction was stopped by the addition of 5 volumes of cold acetonitrile with IS (100 nM alprazolam, 200 nM caffeine and 100 nM tolbutamide).
# (§7) Samples were then centrifuged at 3,220 g for 40 minutes. An aliquot of 100 μL of the supernatant was mixed with 100 μL of ultra-pure H2O and then used for LC-MS/MS analysis.
# (§8) Single dose PK parameters were also determined for Compound 143, a deuterated derivative of Compound 1, according to the methods described herein. […] Metabolic stability was assessed by measuring the half-life of the test compounds in human and mouse liver microsomes.
# [2] = General solubility protocol (PBS, pH 7.4); type: physicochemical; conditions: PBS buffer, aqueous buffer, kinetic from dmso stock, pH 7.4, 25° C.
# Protocol: Into a 96-well rack, 15 μL of stock solution (10 mM) of each sample was placed. Into each vial of a cap-less Solubility Sample plate 485 μL of buffer was added. The assay was performed in duplicate. To each vial one stir stick was added and each vial was sealed using a molded PTFE/Silicone plug. The Solubility Sample plate was then transferred to an Eppendorf Thermomixer Comfort plate shaker and shake at 25° C. at 1100 RPM for 2 hours. […] Using a vacuum manifold, all the samples were filtered. An aliquot of 5 μL was taken from the filtrate and 5 μL blank DMSO followed by addition of 490 μL of a mixture of H2O and acetonitrile containing an internal standard (1:1). The dilution factor may be changed according to the solubility value and the LC/MS signal response.
# [3] = Liver microsomes stability, mouse; type: in vitro ADME; conditions: 1 μM, Table 3, read-out: Metabolic Stability Half-life, mouse
# Protocol: as §1, §2, §3, §4, §5, §6, §7, §8
# MDR1 = biological target: T1, MDR1 (Homo sapiens, UniProt P08183); assay: MDCK-MDR1 permeability / efflux assay; type: in vitro ADME, canine; conditions: dog, MDCK-MDR1, pH 7.4, MDCK-MDR1, 1 μM, 2 hours; Table 3; read-out: MDCK-MDR1 Efflux ratio
# T1 construct: expressed in transfected cells; host or cells: MDCK-MDR1 cells (MDCK host)
# Protocol: To prepare transport buffer (HBSS with 10 mM HEPES, pH 7.4), 2.383 g of HEPES and 0.35 g sodium hydrogen carbonate was accurately weighed and added into 900 mL of pure water, then sonicated to dissolve the content. Into the solution was transferred 100 mL of 10×HBSS, and the solution was placed on a stirrer. The pH of the solution was slowly adjusted with sodium hydroxide to 7.4, followed with filtering.
# MDCK-MDR1 plate(s) were removed from the incubator. The monolayer was washed the monolayer twice with pre-warmed HBSS (10 mM HEPES, pH 7.4). Then the plate(s) were incubated at 37° C. for 30 minutes.
# Propranolol was used as the high permeability marker. Digoxin was used as the substrate of […] (MDR1). Stock solutions of test compound(s) and digoxin in DMSO at 0.2 mM were prepared and diluted with HBSS (10 mM HEPES, pH 7.4) to get 1 μM working solutions. Stock solutions of propranolol in DMSO at 1 mM was prepared and diluted with HBSS (10 mM HEPES, pH 7.4) to get 5 μM working solutions.
# To determine the rate of drug transport in the apical to basolateral direction, 125 μL of the working solution was added to the Transwell insert (apical compartment), and a 50 μL sample was immediately transferred from the apical compartment to 200 μL quenching solvents (acetonitrile with 100 nM alprazolam, 200 nM caffeine, 200 nM labetalol and 100 nM tolbutamide) in a new 96-well plate as the initial donor sample (A-B). The plate was shaken at 1000 rpm for 10 minutes. The wells in the receiver plate (basolateral compartment) were filled with 235 μL of transport buffer. All incubations were performed in duplicate.
# To determine the rate of drug transport in the basolateral to apical direction, 285 μL of the 1 μM working solution was added to the receiver plate wells (basolateral compartment), and a 50 μL sample was immediately transferred from the basolateral compartment to 200 μL quenching solvents (acetonitrile with 100 nM alprazolam, 200 nM caffeine, 200 nM labetalol and 100 nM tolbutamide) in a new 96-well plate as the initial donor sample (B-A). Shake the plate at 1000 rpm 10 minutes. The Transwell insert (apical compartment) was filled with 75 μL of transport buffer. The apical to basolateral direction and the basolateral to apical direction were done at the same time.
# The Transwell insert plate was inserted into the basolateral plate, transferred into the incubator and incubated at 37° C. for 2 hours.
# At the end of the incubation, 50 μL samples from donor sides (apical compartment for Ap→Bl flux, and basolateral compartment for Bl→Ap flux) and receiver sides (basolateral compartment for Ap→Bl flux, and apical compartment for Bl→Ap flux) were transferred to wells of a new 96-well plate, followed by the addition of 4 volume of quenching solvents (acetonitrile with 100 nM alprazolam, 200 nM caffeine, 200 nM labetalol and 100 nM tolbutamide). Samples were Vortexed for 10 minutes and then centrifuged at 3,220 g for 40 minutes. An aliquot of 100 μL of the supernatant was mixed with an appropriate volume of ultra-pure water before LC-MS/MS analysis.
# To determine the Lucifer yellow leakage after 2-hour transport period, Lucifer yellow working solutions were prepared by diluting the stock solution with HBSS (10 mM HEPES, pH 7.4) to reach the final concentration of 100 μM. To the apical compartment, 100 μL of the Lucifer yellow solution were added. The plate(s) were incubated at 37° C. for 30 minutes and 80 μL was directly removed from the apical and basolateral wells and transferred to new 96 wells plates. Lucifer yellow fluorescence (to monitor monolayer integrity) was measured in a fluorescence plate reader at 485 nm excitation and 530 nm emission.
# HCT116 colorectal cells = assay: Cell viability assay (CellTiter-Glo) in HCT116 cells; type: cell-based; conditions: Homo sapiens, HCT-116, 72h, CellTiter-Glo, read-out: HCT116 Assay (IC50)
# Protocol: HCT116 colorectal cells were used in these experiments. HCT116 cells were obtained from ATCC. The CellTiter-Glo® Luminescent Cell Viability Assay Reagent was obtained from Promega.
# Into a 96-well plate, 3000 HCT116 cells were seeded with 100 μL of media (McCoy's 5A Medium supplemented with 10% FBS, 100 units penicillin, and 100 μg streptomycin per mL) 24h before the experiment. For compound treatment, the liquid handling system-Pico machine was used to prepare all the compounds. Each master plate contained serial dilution of 2 compounds, including the control compound E7820. 10 mM compound stock was added to each well of the assay plate to give final concentrations of […], 0.003, 0.002 and 0 μM. Each concentration was tested in triplicate. After 72h, cell viability was determined using CellTiter-Glo Luminescent Cell Viability Assay Reagent following the manufacturer's recommended protocol. Briefly, equilibrate the assay plate and its contents at room temperature for approximately 30 minutes. 100 μL of CellTiter-Glo reagent was added to each well of the assay plate and the contents were mixed for 2 minutes at 500 rpm on an orbital shaker to induce cell lysis (Fisherbrand). The plate was incubated at room temperature for 10 minutes to stabilize luminescent signal. Then the plate was immediately placed in a plate reader (PerkinElmer Multimode Plate Reader Envision2105) and the luminescence signal (0.5 second per well integration time) was determined. IC50 values were calculated using Graphpad Prism 9 software.
# Cell viability assays were performed to compare the potency of Compound 1 to Compound 143.
# T1 sequence (P08183 whole entry): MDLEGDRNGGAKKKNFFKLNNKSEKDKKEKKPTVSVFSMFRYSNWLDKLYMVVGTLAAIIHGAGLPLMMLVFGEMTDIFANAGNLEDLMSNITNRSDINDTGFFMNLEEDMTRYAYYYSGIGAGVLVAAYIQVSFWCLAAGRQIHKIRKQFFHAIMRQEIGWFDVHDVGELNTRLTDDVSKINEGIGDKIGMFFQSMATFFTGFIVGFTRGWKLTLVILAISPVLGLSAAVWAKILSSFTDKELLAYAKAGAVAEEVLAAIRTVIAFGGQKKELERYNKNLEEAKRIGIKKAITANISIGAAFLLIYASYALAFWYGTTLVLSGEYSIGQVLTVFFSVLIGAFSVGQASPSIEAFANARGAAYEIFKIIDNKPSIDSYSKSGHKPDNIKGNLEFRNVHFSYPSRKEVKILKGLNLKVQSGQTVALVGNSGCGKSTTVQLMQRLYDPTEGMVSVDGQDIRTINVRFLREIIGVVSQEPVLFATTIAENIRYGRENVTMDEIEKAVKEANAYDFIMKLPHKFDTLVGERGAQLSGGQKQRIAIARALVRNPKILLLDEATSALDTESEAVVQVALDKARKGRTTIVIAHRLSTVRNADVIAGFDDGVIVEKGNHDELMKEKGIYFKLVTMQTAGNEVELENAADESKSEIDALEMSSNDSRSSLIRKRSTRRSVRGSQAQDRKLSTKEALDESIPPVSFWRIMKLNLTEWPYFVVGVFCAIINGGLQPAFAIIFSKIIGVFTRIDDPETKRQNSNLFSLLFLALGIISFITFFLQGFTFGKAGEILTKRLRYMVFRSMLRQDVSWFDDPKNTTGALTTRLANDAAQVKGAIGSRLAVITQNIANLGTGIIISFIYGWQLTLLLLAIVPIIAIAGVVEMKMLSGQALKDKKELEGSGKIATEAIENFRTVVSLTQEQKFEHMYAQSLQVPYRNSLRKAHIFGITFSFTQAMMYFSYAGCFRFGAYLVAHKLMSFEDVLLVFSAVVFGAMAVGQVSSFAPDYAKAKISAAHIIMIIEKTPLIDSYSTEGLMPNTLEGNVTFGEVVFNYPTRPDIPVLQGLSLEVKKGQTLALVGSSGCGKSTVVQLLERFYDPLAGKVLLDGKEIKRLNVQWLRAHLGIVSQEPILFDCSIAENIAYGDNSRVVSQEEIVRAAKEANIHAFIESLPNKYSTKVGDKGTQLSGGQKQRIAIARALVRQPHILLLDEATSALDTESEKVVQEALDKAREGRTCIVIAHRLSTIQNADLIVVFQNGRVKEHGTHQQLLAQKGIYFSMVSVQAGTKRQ
half-life at 1 µM [1],solubility at 2 h [2],half-life at 1 µM [3],"efflux ratio at 2 h, 1 µM (MDR1)",IC50 (HCT116 colorectal cells),Compound
> 3.85 h,292 µM,2.68 h,6.74,< 500 nM,"Cc1ncc(S(=O)(=O)Nc2ccc(C)c3c(C#N)c[nH]c23)o1 [Compound 2, N-(3-cyano-4-methyl-1H-indol-7-yl)-2-methyl-oxazole-5-sulfonamide]"
0.396 h,1.91 µM,,1.11,< 500 nM,"Cc1ncc(S(=O)(=O)Nc2ccc(C)c3c(Cl)c[nH]c23)s1 [Compound 20, N-(3-chloro-4-methyl-1H-indol-7-yl)-2-methyl-thiazole-5-sulfonamide]"
1.16 h,1.24 µM,0.566 h,50.1,,Cc1ccc(NS(=O)(=O)c2ccn3ccnc3c2)c2[nH]cc(C#N)c12 [Compound 39]
0.557 h,294 µM,1.02 h,4.84,< 500 nM,Cc1cc(S(=O)(=O)Nc2ccc(C)c3c(C#N)c[nH]c23)sn1 [Compound 57]
